Results taken from PMC10329608, “Investigation of the structure-activity relationship at the N-terminal part of minigastrin analogs” (EJNMMI Research, 2023).
“Also recorded” adds a separate entry of the source. Read-outs that look alike come from different tables or passages of the source. Starred links: 1 amine or outer side, 2 acyl side, 3 side chain; linkers in the order of their positions; H or OH if unused. Non-standard residues stand in square brackets, D forms with d. Residues, ends and D or L forms follow the SMILES beside them. *: point of attachment. DOTA = O=C(O)CN1CCN(CC(=O)O)CCN(CC(=O)*)CCN(CC(=O)O)CC1; d(γGlu) = O=C(O)[C@@H](CCC(=O)[*:2])N[*:1]; 1Nal = N[C@@H](Cc1cccc2ccccc12)C(=O)O; 2Nal = N[C@@H](Cc1ccc2ccccc2c1)C(=O)O; PEG5 = NCCOCCOCCOCCOCCOCCC(=O)O; NMeNle = CCCC[C@H](NC)C(=O)O; PEG4 = NCCOCCOCCOCCOCCC(=O)O; Nle = CCCC[C@H](N)C(=O)O

Legend:
[1] = assay type: physicochemical; conditions: pH 7.4
Experimental: Lipophilicity (depicted as n-octanol-phosphate-buffered saline solution (PBS, pH = 7.4) distribution coefficient, logD7.4) of ^177Lu-labeled minigastrin analogs was evaluated as previously published.

CCK-2R = target: T1, CCK-2R (Rattus norvegicus, UniProt P30553); test: Competitive binding (IC50) on AR42J cells against [177Lu]Lu-DOTA-PP-F11N; conditions: for IC50 / CCK-2R affinity (in words): AR42J cells; for IC50: 3 h; for CCK-2R affinity (in words): tetrapeptides; for fold elevated IC50 value versus N-methylated tetrapeptides: B1 versus B3, B5 and B7 versus B3, B4 and B6
T1 construct: endogenous in cells; host or cells: AR42J cells
T1 sequence (P30553 1-452): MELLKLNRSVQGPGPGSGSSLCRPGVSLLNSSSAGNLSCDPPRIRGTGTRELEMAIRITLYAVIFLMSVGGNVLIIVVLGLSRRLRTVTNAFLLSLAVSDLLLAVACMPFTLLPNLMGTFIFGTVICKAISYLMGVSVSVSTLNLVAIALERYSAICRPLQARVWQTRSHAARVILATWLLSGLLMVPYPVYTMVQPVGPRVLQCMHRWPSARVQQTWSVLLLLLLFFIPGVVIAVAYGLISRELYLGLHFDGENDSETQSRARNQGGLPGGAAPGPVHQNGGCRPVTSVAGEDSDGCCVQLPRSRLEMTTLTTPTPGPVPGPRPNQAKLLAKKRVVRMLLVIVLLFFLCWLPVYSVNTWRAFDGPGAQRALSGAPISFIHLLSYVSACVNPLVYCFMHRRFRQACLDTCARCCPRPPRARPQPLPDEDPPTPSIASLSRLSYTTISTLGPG
Experimental: IC50 values of all compounds were determined according to a previously published procedure. In brief, competitive binding studies were performed via co-incubation of increasing concentrations of the peptide of interest (10^−10 to 10^–4 M, in triplicate) together with the reference compound [^177Lu]Lu-DOTA-PP-F11N (0.3 pmol/well) on AR42J cells (2 × 10^5 cells per 1 mL/well) at 37 °C for 3 h. Table S1. CCK-2R affinity and lipophilicity data of the compounds evaluated. Affinity data were determined on AR42J cells (2.0 x 10^5 cells/well/mL) and [^177Lu]Lu-DOTA-PP-F11N (0.3 pmol/well) as radiolabeled reference (3 h, 37°C, RPMI 1640, 5 mM L-Gln, 5 mL non-essential amino acids (100x), 10% FCS + 5% BSA (v/v)).

[2] = 2.0 x 10^5 cells/well/mL, [177Lu]Lu-DOTA-PP-F11N 0.3 pmol/well as reference, 37°C, natLu-labeled DOTA peptides, tetrapeptides unlabeled, read-out: IC50
[3] = [177Lu]Lu-DOTA-PP-F11N as reference, 37 °C, values in text, read-out: IC50 (CCK-2R affinity)

Row | logD [1] | logD7.4 [1] | SMILES | other results
1 | -1.34 ± 0.08 | − 1.9 to − 1.2 | CCCC[C@@H](C(=O)N[C@@H](CC(=O)O)C(=O)N[C@@H](Cc1cccc2ccccc12)C(N)=O)N(C)C(=O)[C@H](Cc1c[nH]c2ccccc12)NC(=O)CNC(=O)CN1CCN(CC(=O)O)CCN(CC(=O)O)CCN(CC(=O)O)CC1 [[^nat/177Lu]Lu-DOTA-CCK-62, DOTA-Gly-Trp-(N-Me)Nle-Asp-1-Nal-NH2, metal not drawn] ({DOTA}-GW[NMeNle]D[1Nal]-NH2) | 
2 |  |  | CCCC[C@H](NC(=O)[C@@H](N)Cc1c[nH]c2ccccc12)C(=O)N[C@@H](CC(=O)O)C(=O)N[C@@H](Cc1ccccc1)C(N)=O [B2, H-Trp-Nle-Asp-Phe-NH2] (H-W[Nle]DF-NH2) | IC50 (CCK-2R; [2]): 466 ± 88 nM; CCK-2R affinity (in words) (CCK-2R): significant loss in CCK-2R affinity; CCK-2R affinity (in words) (CCK-2R; listed as H-Trp-Nle-Asp-Phe-NH2): noticeably decreased CCK-2R affinity
3 |  |  | CCCC[C@@H](C(=O)N[C@@H](CC(=O)O)C(=O)N[C@@H](Cc1c[nH]c2ccccc12)C(N)=O)N(C)C(=O)[C@@H](N)Cc1c[nH]c2ccccc12 [B7, H-Trp-(N-Me)Nle-Asp-Trp-NH2] (H-W[NMeNle]DW-NH2) | fold elevated IC50 value versus N-methylated tetrapeptides (CCK-2R): 3.5- to 19 fold
4 | -1.26 ± 0.08 | − 1.9 to − 1.2 | CCCC[C@@H](C(=O)N[C@@H](CC(=O)O)C(=O)N[C@@H](Cc1cccc2ccccc12)C(N)=O)N(C)C(=O)[C@H](Cc1c[nH]c2ccccc12)NC(=O)CNC(=O)[C@H](Cc1ccc(O)cc1)NC(=O)[C@H](C)NC(=O)CNC(=O)CN1CCN(CC(=O)O)CCN(CC(=O)O)CCN(CC(=O)O)CC1 [[^nat/177Lu]Lu-DOTA-CCK-59, metal not drawn] ({DOTA}-GAYGW[NMeNle]D[1Nal]-NH2) | 
5 | -2.63 ± 0.05 | ‒2.7 to ‒2.1 | CCCC[C@@H](C(=O)N[C@@H](CC(=O)O)C(=O)N[C@@H](Cc1cccc2ccccc12)C(N)=O)N(C)C(=O)[C@H](Cc1c[nH]c2ccccc12)NC(=O)CNC(=O)[C@H](Cc1ccc(O)cc1)NC(=O)CNC(=O)CC[C@@H](NC(=O)CN1CCN(CC(=O)O)CCN(CC(=O)O)CCN(CC(=O)O)CC1)C(=O)O [[^nat/177Lu]Lu-DOTA-CCK-60, metal not drawn] ({DOTA-d(γGlu)}-GYGW[NMeNle]D[1Nal]-NH2) | 
6 |  |  | CCCC[C@@H](C(=O)N[C@@H](CC(=O)O)C(=O)N[C@@H](Cc1ccc2ccccc2c1)C(N)=O)N(C)C(=O)[C@@H](N)Cc1c[nH]c2ccccc12 [B5, H-Trp-(N-Me)Nle-Asp-2-Nal-NH2] (H-W[NMeNle]D[2Nal]-NH2) | fold elevated IC50 value versus N-methylated tetrapeptides (CCK-2R): 3.5- to 19 fold
7 | -1.38 ± 0.07 | − 1.9 to − 1.2 | CCCC[C@@H](C(=O)N[C@@H](CC(=O)O)C(=O)N[C@@H](Cc1cccc2ccccc12)C(N)=O)N(C)C(=O)[C@H](Cc1c[nH]c2ccccc12)NC(=O)CNC(=O)[C@H](Cc1ccc(O)cc1)NC(=O)CNC(=O)CNC(=O)CN1CCN(CC(=O)O)CCN(CC(=O)O)CCN(CC(=O)O)CC1 [[^nat/177Lu]Lu-DOTA-CCK-56, metal not drawn] ({DOTA}-GGYGW[NMeNle]D[1Nal]-NH2) | 
8 | -2.56 ± 0.09 | ‒2.7 to ‒2.1 | CCCC[C@@H](C(=O)N[C@@H](CC(=O)O)C(=O)N[C@@H](Cc1cccc2ccccc12)C(N)=O)N(C)C(=O)[C@H](Cc1c[nH]c2ccccc12)NC(=O)CNC(=O)CNC(=O)[C@H](C)NC(=O)CC[C@@H](NC(=O)CN1CCN(CC(=O)O)CCN(CC(=O)O)CCN(CC(=O)O)CC1)C(=O)O [[^nat/177Lu]Lu-DOTA-CCK-61, metal not drawn] ({DOTA-d(γGlu)}-AGGW[NMeNle]D[1Nal]-NH2) | 
9 |  |  | CCCC[C@@H](C(=O)N[C@@H](CC(=O)O)C(=O)N[C@@H](Cc1ccccc1)C(N)=O)N(C)C(=O)[C@@H](N)Cc1c[nH]c2ccccc12 [B4, H-Trp-(N-Me)Nle-Asp-Phe-NH2] (H-W[NMeNle]DF-NH2) | CCK-2R affinity (in words) (CCK-2R): CCK-2R affinities in the low nanomolar range
10 |  |  | CCCC[C@@H](C(=O)N[C@@H](CC(=O)O)C(=O)N[C@@H](Cc1ccc(O)cc1)C(N)=O)N(C)C(=O)[C@@H](N)Cc1c[nH]c2ccccc12 [B6, H-Trp-(N-Me)Nle-Asp-Tyr-NH2] (H-W[NMeNle]DY-NH2) | CCK-2R affinity (in words) (CCK-2R): CCK-2R affinities in the low nanomolar range
11 |  |  | CCCC[C@@H](C(=O)N[C@@H](CC(=O)O)C(=O)N[C@@H](Cc1cccc2ccccc12)C(N)=O)N(C)C(=O)[C@@H](N)Cc1c[nH]c2ccccc12 [B3, H-Trp-(N-Me)Nle-Asp-1-Nal-NH2] (H-W[NMeNle]D[1Nal]-NH2) | CCK-2R affinity (in words) (CCK-2R): CCK-2R affinities in the low nanomolar range
12 | -2.13 ± 0.05 |  | CCCC[C@@H](C(=O)N[C@@H](CC(=O)O)C(=O)N[C@@H](Cc1cccc2ccccc12)C(N)=O)N(C)C(=O)[C@H](Cc1c[nH]c2ccccc12)NC(=O)CCOCCOCCOCCOCCOCCNC(=O)CN1CCN(CC(=O)O)CCN(CC(=O)O)CCN(CC(=O)O)CC1 [[^nat/177Lu]Lu-DOTA-CCK-63, metal not drawn] ({DOTA-PEG5}-W[NMeNle]D[1Nal]-NH2) | IC50 (CCK-2R; [3]): 8.8 ± 1.3 nM
13 | -2.66 ± 0.06 | ‒2.7 to ‒2.1 | CCCC[C@@H](C(=O)N[C@@H](CC(=O)O)C(=O)N[C@@H](Cc1cccc2ccccc12)C(N)=O)N(C)C(=O)[C@H](Cc1c[nH]c2ccccc12)NC(=O)CNC(=O)CNC(=O)CNC(=O)CC[C@@H](NC(=O)CN1CCN(CC(=O)O)CCN(CC(=O)O)CCN(CC(=O)O)CC1)C(=O)O [[^nat/177Lu]Lu-DOTA-CCK-58, metal not drawn] ({DOTA-d(γGlu)}-GGGW[NMeNle]D[1Nal]-NH2) | 
14 |  |  | CCCC[C@H](NC(=O)[C@@H](N)Cc1c[nH]c2ccccc12)C(=O)N[C@@H](CC(=O)O)C(=O)N[C@@H](Cc1cccc2ccccc12)C(N)=O [B1, H-Trp-Nle-Asp-1-Nal-NH2] (H-W[Nle]D[1Nal]-NH2) | IC50 (CCK-2R; [2]): 297 ± 15 nM; fold elevated IC50 value versus N-methylated tetrapeptides (CCK-2R): 50 fold; CCK-2R affinity (in words) (CCK-2R): significant loss in CCK-2R affinity; also recorded: low CCK-2R affinity
15 | -2.09 ± 0.07 | ‒2.7 to ‒2.1 | CCCC[C@@H](C(=O)N[C@@H](CC(=O)O)C(=O)N[C@@H](Cc1cccc2ccccc12)C(N)=O)N(C)C(=O)[C@H](Cc1c[nH]c2ccccc12)NC(=O)CNC(=O)CNC(=O)CNC(=O)CNC(=O)CN1CCN(CC(=O)O)CCN(CC(=O)O)CCN(CC(=O)O)CC1 [[^nat/177Lu]Lu-DOTA-CCK-55, metal not drawn] ({DOTA}-GGGGW[NMeNle]D[1Nal]-NH2) | 
16 | -1.94 ± 0.06 | − 1.9 to − 1.2 | CCCC[C@@H](C(=O)N[C@@H](CC(=O)O)C(=O)N[C@@H](Cc1cccc2ccccc12)C(N)=O)N(C)C(=O)[C@H](Cc1c[nH]c2ccccc12)NC(=O)CNC(=O)CNC(=O)[C@H](C)NC(=O)CNC(=O)CN1CCN(CC(=O)O)CCN(CC(=O)O)CCN(CC(=O)O)CC1 [[^nat/177Lu]Lu-DOTA-CCK-57, metal not drawn] ({DOTA}-GAGGW[NMeNle]D[1Nal]-NH2) | IC50 (CCK-2R; [2]): 9.67 ± 1.74 nM
17 | -2.21 ± 0.07 |  | CCCC[C@@H](C(=O)N[C@@H](CC(=O)O)C(=O)N[C@@H](Cc1cccc2ccccc12)C(N)=O)N(C)C(=O)[C@H](Cc1c[nH]c2ccccc12)NC(=O)CCOCCOCCOCCOCCNC(=O)CN1CCN(CC(=O)O)CCN(CC(=O)O)CCN(CC(=O)O)CC1 [[^nat/177Lu]Lu-DOTA-CCK-64, metal not drawn] ({DOTA-PEG4}-W[NMeNle]D[1Nal]-NH2) | IC50 (CCK-2R; [2]): 7.64 ± 0.86 nM; IC50 (CCK-2R; [3]): 7.6 ± 0.9 nM
18 | -2.24 ± 0.04 | − 2.24 ± 0.04 | CCCC[C@@H](C(=O)N[C@@H](CC(=O)O)C(=O)N[C@@H](Cc1cccc2ccccc12)C(N)=O)N(C)C(=O)[C@H](Cc1c[nH]c2ccccc12)NC(=O)CNC(=O)[C@H](Cc1ccc(O)cc1)NC(=O)[C@H](C)NC(=O)CC[C@@H](NC(=O)CN1CCN(CC(=O)O)CCN(CC(=O)O)CCN(CC(=O)O)CC1)C(=O)O [[^nat/177Lu]Lu-DOTA-γ-MGS5, DOTA-D-γ-Glu-Ala-Tyr-Gly-Trp-(N-Me)Nle-Asp-1-Nal-NH2, metal not drawn, reference compound] ({DOTA-d(γGlu)}-AYGW[NMeNle]D[1Nal]-NH2) | 
19 |  | − 2.21 ± 0.08 | CCCC[C@@H](C(=O)N[C@@H](CC(=O)O)C(=O)N[C@@H](Cc1cccc2ccccc12)C(N)=O)N(C)C(=O)[C@H](Cc1c[nH]c2ccccc12)NC(=O)CNC(=O)[C@H](Cc1ccc(O)cc1)NC(=O)[C@H](C)NC(=O)[C@@H](CCC(=O)O)NC(=O)CN1CCN(CC(=O)O)CCN(CC(=O)O)CCN(CC(=O)O)CC1 [[^natLu]Lu-DOTA-MGS5, DOTA-D-Glu-Ala-Tyr-Gly-Trp-(N-Me)Nle-Asp-1-Nal-NH2, metal not drawn, reference compound] | IC50 (CCK-2R; [3]): 5.2 ± 0.8 nM
